{"source": "patent US20170016004A1", "about": "“DDX5 AND ASSOCIATED NON-CODING RNAs AND MODULATION OF TH17 EFFECTOR FUNCTION” (priority 2015, published 2017)", "origin": "cited, not measured here", "tested_on": "ileal and colonic SMAD7", "conditions": "oral", "data": [{"substance": "mongersen", "values": [{"measurement": "treatment of Crohn's Disease", "value": "used successfully"}]}]}
